Reference: ChEMBL document CHEMBL4699582, “Discovery of OATD-01, a First-in-Class Chitinase Inhibitor as Potential New Therapeutics for Idiopathic Pulmonary Fibrosis” (J Med Chem, 2020)
Active and inactive are the calls of the source. No cut-off for these calls is given here.

What was measured:
[1] = Dose normalized AUC (0 to 24 hrs) in Beagle dog at 3 mg/kg, iv administered as single bolus dose by LC-MS/MS analysis; assay type: ADME, organism-based, Canis lupus familiaris; conditions: in vivo
[2] = AUC (0 to 24 hrs) in Sprague-Dawley rat at 6 mg/kg, po administered as single dose by LC-MS/MS analysis; assay type: ADME, organism-based; design: time < 24 hr, route oral, dose 6 mg/kg; conditions: in vivo
[3] = target: ATP-binding cassette sub-family C member 2 (Homo sapiens, UniProt Q92887); assay: Inhibition of MRP2 (unknown origin) at 1 to 10 uM; conditions: dose 1-10 µM
Sequence of ATP-binding cassette sub-family C member 2 (Q92887 whole entry): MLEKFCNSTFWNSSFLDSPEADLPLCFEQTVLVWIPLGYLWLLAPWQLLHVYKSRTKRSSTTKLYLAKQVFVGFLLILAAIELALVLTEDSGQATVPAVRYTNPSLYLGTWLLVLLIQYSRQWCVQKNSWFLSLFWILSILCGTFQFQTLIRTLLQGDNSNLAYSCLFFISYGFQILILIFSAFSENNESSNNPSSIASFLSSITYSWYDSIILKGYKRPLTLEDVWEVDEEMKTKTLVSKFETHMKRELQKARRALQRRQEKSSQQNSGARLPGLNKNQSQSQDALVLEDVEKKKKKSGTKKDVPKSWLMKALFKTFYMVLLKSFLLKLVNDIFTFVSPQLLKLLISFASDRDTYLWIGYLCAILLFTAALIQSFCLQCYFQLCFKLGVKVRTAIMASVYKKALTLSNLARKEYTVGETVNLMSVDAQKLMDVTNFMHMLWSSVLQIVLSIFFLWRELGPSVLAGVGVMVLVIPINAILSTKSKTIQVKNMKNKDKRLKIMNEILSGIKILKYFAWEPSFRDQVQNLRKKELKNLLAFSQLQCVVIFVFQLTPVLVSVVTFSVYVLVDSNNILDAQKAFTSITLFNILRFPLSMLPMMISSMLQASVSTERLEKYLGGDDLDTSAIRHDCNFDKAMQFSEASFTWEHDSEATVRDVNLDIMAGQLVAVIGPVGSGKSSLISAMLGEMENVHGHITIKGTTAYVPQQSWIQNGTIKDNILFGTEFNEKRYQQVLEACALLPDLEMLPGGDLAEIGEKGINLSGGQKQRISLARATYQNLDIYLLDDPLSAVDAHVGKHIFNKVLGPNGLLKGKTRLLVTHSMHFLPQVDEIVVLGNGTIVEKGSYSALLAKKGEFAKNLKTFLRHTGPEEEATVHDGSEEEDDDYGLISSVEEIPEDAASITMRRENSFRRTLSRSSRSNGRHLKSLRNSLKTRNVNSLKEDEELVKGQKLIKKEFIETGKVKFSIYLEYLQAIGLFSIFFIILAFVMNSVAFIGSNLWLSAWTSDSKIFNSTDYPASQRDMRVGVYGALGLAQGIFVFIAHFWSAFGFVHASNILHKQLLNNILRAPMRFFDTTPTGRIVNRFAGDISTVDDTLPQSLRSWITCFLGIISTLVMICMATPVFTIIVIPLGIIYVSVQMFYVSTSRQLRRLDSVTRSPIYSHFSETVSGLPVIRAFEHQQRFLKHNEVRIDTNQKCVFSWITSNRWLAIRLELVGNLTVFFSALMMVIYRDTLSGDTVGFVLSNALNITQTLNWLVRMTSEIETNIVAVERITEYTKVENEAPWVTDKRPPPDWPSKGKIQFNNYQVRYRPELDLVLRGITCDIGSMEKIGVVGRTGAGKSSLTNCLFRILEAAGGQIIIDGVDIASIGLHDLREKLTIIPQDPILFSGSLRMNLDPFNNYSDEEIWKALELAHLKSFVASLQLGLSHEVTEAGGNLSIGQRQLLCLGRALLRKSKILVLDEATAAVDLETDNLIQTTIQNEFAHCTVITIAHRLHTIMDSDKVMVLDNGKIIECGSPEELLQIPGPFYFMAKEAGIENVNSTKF

[4] = Clearance (0 to 24 hrs) in Sprague-Dawley rat at 2 mg/kg, iv administered as single bolus dose by LC-MS/MS analysis; assay type: ADME, organism-based; conditions: in vivo
[5] = Drug uptake in C57BL/6N mouse lung at 30 mg/kg, po bid administered via gavage measured 24 hrs post dose; assay type: ADME, organism-based; conditions: in vivo
[6] = Dose normalized AUC (0 to 24 hrs) in Sprague-Dawley rat at 2 mg/kg, iv administered as single bolus dose by LC-MS/MS analysis; assay type: ADME, organism-based; conditions: in vivo
[7] = target: ATP-binding cassette sub-family C member 3 (Homo sapiens, UniProt O15438); assay: Inhibition of MRP3 (unknown origin) at 1 to 10 uM; conditions: dose 1-10 µM
Sequence of ATP-binding cassette sub-family C member 3 (O15438 whole entry): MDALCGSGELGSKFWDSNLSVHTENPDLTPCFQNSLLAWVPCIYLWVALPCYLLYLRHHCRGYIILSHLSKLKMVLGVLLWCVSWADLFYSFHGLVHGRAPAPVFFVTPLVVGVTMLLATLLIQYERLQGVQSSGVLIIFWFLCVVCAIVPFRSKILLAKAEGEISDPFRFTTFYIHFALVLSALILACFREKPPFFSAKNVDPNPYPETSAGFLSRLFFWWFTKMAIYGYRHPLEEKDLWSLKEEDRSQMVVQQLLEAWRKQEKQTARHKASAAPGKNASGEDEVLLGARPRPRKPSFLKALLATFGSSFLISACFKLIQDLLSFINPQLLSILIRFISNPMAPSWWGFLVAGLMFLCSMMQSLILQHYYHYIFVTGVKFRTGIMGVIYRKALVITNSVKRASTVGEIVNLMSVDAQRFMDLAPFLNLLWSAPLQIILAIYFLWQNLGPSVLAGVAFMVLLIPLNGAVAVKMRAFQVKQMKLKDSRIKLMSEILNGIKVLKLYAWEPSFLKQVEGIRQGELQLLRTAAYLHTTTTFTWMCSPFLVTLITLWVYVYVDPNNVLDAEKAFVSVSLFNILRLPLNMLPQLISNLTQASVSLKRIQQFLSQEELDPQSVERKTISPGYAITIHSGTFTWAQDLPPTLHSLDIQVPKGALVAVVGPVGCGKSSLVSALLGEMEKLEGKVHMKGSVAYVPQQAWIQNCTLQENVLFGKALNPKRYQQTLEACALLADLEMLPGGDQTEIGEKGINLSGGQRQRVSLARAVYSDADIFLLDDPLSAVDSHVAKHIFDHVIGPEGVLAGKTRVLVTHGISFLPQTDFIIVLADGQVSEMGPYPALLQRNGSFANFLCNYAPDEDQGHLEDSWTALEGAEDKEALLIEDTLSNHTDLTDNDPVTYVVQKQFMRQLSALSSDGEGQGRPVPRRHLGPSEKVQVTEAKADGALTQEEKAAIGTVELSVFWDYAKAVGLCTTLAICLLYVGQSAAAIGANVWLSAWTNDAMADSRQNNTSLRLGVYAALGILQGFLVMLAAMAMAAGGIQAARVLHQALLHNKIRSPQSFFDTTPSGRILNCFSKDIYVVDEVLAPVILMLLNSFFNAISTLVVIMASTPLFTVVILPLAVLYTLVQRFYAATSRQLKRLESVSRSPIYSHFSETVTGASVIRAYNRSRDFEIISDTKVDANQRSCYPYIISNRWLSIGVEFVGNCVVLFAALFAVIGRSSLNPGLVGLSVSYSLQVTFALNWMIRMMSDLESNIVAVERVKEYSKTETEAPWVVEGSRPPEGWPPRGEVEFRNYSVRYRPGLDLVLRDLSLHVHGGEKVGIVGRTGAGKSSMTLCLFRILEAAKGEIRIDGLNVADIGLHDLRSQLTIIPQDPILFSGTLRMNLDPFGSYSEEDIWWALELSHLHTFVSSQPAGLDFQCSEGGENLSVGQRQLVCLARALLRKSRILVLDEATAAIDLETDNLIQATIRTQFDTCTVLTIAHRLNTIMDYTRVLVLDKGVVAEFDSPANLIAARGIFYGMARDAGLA

[8] = target: Organic anion transporter 3 (Homo sapiens, UniProt Q8TCC7); assay: Inhibition of OAT3 (unknown origin) at 1 to 10 uM; conditions: dose 1-10 µM
Sequence of Organic anion transporter 3 (Q8TCC7 whole entry): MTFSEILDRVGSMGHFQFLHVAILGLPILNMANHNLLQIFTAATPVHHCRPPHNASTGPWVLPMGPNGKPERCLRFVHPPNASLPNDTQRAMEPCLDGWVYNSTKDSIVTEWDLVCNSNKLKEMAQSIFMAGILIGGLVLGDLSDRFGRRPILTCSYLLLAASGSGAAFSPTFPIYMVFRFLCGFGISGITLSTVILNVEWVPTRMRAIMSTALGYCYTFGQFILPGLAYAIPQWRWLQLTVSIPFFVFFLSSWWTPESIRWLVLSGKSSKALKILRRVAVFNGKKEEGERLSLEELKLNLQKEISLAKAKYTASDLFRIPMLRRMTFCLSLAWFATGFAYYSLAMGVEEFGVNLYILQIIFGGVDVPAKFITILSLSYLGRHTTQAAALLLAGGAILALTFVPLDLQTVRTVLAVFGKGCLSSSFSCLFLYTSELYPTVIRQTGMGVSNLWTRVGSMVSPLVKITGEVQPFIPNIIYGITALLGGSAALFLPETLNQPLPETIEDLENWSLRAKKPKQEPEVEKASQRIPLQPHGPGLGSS

[9] = Drug uptake in C57BL/6N mouse plasma at 30 mg/kg, po bid administered via gavage measured 24 hrs post dose; assay type: ADME, organism-based; conditions: in vivo
[10] = Cmax in Beagle dog at 3 mg/kg, iv administered as single bolus dose by LC-MS/MS analysis; assay type: ADME, organism-based, Canis lupus familiaris; design: route intravenous, dose 3 mg/kg; conditions: in vivo
[11] = Elimination half-life in Beagle dog at 10 mg/kg, po administered as single dose by LC-MS/MS analysis; assay type: ADME, organism-based, Canis lupus familiaris; conditions: in vivo, read-out: beta t1/2 (converted)
[12] = target: Solute carrier organic anion transporter family member 1B1 (Homo sapiens, UniProt Q9Y6L6); assay: Inhibition of OATP1B1 (unknown origin) at 1 to 10 uM; conditions: dose 1-10 µM
Sequence of Solute carrier organic anion transporter family member 1B1 (Q9Y6L6 whole entry): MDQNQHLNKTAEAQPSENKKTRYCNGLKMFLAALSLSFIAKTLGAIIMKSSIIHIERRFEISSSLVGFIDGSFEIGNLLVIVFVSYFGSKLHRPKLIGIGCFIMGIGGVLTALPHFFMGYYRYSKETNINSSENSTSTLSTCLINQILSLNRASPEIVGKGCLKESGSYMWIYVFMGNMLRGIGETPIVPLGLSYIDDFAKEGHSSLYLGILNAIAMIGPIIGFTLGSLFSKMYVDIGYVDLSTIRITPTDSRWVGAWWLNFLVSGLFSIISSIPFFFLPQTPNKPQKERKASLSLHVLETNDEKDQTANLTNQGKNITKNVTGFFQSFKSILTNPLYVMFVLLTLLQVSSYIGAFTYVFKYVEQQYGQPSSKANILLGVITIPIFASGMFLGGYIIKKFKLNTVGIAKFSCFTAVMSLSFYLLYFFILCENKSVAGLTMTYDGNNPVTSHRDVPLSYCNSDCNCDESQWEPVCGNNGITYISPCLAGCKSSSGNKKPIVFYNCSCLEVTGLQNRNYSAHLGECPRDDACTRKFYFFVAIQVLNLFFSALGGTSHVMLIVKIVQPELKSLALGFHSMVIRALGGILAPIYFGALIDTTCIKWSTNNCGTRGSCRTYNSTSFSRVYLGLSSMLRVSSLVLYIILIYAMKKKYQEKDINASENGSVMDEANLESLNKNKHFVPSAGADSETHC

Cytochrome P450 1A2 = Cytochrome P450 1A2 (Homo sapiens, UniProt P05177); assay: Inhibition of CYP1A2 (unknown origin); assay type: ADME
[13] = Elimination half-life in Beagle dog at 3 mg/kg, iv administered as single bolus dose by LC-MS/MS analysis; assay type: ADME, organism-based, Canis lupus familiaris; conditions: in vivo, read-out: beta t1/2 (converted)
[14] = Clearance (0 to 24 hrs) in Balb/c mouse at 3 mg/kg, iv administered as single bolus dose by LC-MS/MS analysis; assay type: ADME, organism-based; conditions: in vivo
[15] = Cmax in Balb/c mouse at 10 mg/kg, po administered as single dose by LC-MS/MS analysis; assay type: ADME, organism-based; design: route oral, dose 10 mg/kg; conditions: in vivo
[16] = Tmax in Sprague-Dawley rat at 6 mg/kg, po administered as single dose by LC-MS/MS analysis; assay type: ADME, organism-based; conditions: in vivo
[17] = Clearance (0 to 24 hrs) in Beagle dog at 3 mg/kg, iv administered as single bolus dose by LC-MS/MS analysis; assay type: ADME, organism-based, Canis lupus familiaris; conditions: in vivo
[18] = Cmax in Sprague-Dawley rat at 6 mg/kg, po administered as single dose by LC-MS/MS analysis; assay type: ADME, organism-based; design: route oral, dose 6 mg/kg; conditions: in vivo
[19] = Clearance (0 to infinity) in Balb/c mouse at 3 mg/kg, iv administered as single bolus dose by LC-MS/MS analysis; assay type: ADME, organism-based; conditions: in vivo
[20] = target: Hepatic sodium/bile acid cotransporter (Homo sapiens, UniProt Q14973); assay: Inhibition of NTCP (unknown origin) at 1 to 10 uM; conditions: dose 1-10 µM
[21] = Elimination half-life in Sprague-Dawley rat at 2 mg/kg, iv administered as single bolus dose by LC-MS/MS analysis; assay type: ADME, organism-based; conditions: in vivo, read-out: beta t1/2 (converted)
[22] = Drug uptake in C57BL/6N mouse plasma at 30 mg/kg, po qd administered via gavage measured 24 hrs post dose; assay type: ADME, organism-based; conditions: in vivo
[23] = Cmax in Beagle dog at 10 mg/kg, po administered as single dose by LC-MS/MS analysis; assay type: ADME, organism-based, Canis lupus familiaris; design: route oral, dose 10 mg/kg; conditions: in vivo
[24] = target: Solute carrier family 22 member 1 (Homo sapiens, UniProt O15245); assay: Inhibition of OCT1 (unknown origin) at 1 to 10 uM; conditions: dose 1-10 µM
Sequence of Solute carrier family 22 member 1 (O15245 whole entry): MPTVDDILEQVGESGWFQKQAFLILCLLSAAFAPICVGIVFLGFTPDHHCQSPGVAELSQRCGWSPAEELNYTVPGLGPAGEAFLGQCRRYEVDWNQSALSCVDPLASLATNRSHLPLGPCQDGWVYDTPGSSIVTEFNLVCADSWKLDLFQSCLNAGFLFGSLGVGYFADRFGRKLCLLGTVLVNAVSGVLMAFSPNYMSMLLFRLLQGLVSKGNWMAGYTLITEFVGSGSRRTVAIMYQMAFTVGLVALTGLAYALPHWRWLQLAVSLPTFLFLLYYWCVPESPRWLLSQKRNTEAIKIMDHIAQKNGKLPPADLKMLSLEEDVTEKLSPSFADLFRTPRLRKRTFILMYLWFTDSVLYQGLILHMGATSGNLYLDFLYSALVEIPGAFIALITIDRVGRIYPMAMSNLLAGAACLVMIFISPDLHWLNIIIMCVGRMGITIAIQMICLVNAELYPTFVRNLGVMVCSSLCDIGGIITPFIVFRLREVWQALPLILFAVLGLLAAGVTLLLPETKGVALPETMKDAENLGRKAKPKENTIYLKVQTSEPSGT

[25] = Clearance (0 to infinity) in Sprague-Dawley rat at 2 mg/kg, iv administered as single bolus dose by LC-MS/MS analysis; assay type: ADME, organism-based; conditions: in vivo
[26] = Oral bioavailability in Sprague-Dawley rat at 6 mg/kg, administered as single dose by LC-MS/MS analysis; assay type: ADME, organism-based; conditions: in vivo
Cytochrome P450 2D6 = Cytochrome P450 2D6 (Homo sapiens, UniProt P10635); assay: Inhibition of CYP2D6 (unknown origin); assay type: ADME
Mus musculus [27] = species: Mus musculus; conditions: C57BL/6N, dose 30.0 mg/kg
[28] = Elimination half-life in Sprague-Dawley rat at 6 mg/kg, po administered as single dose by LC-MS/MS analysis; assay type: ADME, organism-based; conditions: in vivo, read-out: beta t1/2 (converted)
Mus musculus [29] = species: Mus musculus; conditions: C57BL/6N, dose 30.0 mg/kg; remark: listed apart in the source

C[C@H]1CN(C2CCN(c3nc(N)n[nH]3)CC2)[C@@H](Cc2ccc(Cl)cc2)CO1 [5-(4-((2S,5S)-5-(4-CHLOROBENZYL)-2-METHYLMORPHOLINO)PIPERIDIN-1-YL)-1H-1,2,4-TRIAZOL-3-AMINE]
AUC/dose [1]: 10.34 kg·mg·h/L/mg
AUC(0-t) at 24 h [2]: 20.3 µg·h/mL
inhibition (INH) [3]: Not Active
clearance [4]: 0.34 L/h/kg
Drug uptake [5]: Active
AUC/dose [6]: 2.78 kg·mg·h/L/mg
inhibition (INH) [7]: Not Active
inhibition (INH) [8]: Not Active
Drug uptake [9]: Active
Cmax [10]: 2.47 µg/mL
half-life [11]: 22.9 h
inhibition (INH) [12]: Not Active
inhibition (INH) (Cytochrome P450 1A2): Not Active
half-life [13]: 21.9 h
clearance [14]: 0.35 L/h/kg
Cmax [15]: 3.42 µg/mL
Tmax [16]: 2 h
clearance [17]: 0.1 L/h/kg
Cmax [18]: 2.21 µg/mL
clearance [19]: 0.35 L/h/kg
inhibition (INH) [20]: Not Active
half-life [21]: 4.49 h
Drug uptake [22]: Active
Cmax [23]: 7.64 µg/mL
inhibition (INH) [24]: Not Active
clearance [25]: 0.34 L/h/kg
bioavailability [26]: 107%
inhibition (INH) (Cytochrome P450 2D6): Not Active
inhibition (Mus musculus [27]): Active
half-life [28]: 4.47 h
inhibition (Mus musculus [29]): Active
